Measured values: article PMC3050433, “The effects of maribavir on the autophosphorylation of ganciclovir resistant mutants of the cytomegalovirus UL97 protein” (Herpesviridae, 2010)
Where a chain is given by its changes, count along the chain named.

Assays:
Type in all cases: biochemical
UL97 L595F = target: T1, UL97 L595F (Human cytomegalovirus, UniProt Q68101, L595F); test: UL97 autophosphorylation protein kinase assay, L595F
T1 construct: PCR reaction to generate the full length UL97; honey bee melittin secretion signal (N); made in house; host or cells: Sf21 insect cells, recombinant baculovirus (pMelBac C)
T1 sequence (Q68101 1-707 L595F): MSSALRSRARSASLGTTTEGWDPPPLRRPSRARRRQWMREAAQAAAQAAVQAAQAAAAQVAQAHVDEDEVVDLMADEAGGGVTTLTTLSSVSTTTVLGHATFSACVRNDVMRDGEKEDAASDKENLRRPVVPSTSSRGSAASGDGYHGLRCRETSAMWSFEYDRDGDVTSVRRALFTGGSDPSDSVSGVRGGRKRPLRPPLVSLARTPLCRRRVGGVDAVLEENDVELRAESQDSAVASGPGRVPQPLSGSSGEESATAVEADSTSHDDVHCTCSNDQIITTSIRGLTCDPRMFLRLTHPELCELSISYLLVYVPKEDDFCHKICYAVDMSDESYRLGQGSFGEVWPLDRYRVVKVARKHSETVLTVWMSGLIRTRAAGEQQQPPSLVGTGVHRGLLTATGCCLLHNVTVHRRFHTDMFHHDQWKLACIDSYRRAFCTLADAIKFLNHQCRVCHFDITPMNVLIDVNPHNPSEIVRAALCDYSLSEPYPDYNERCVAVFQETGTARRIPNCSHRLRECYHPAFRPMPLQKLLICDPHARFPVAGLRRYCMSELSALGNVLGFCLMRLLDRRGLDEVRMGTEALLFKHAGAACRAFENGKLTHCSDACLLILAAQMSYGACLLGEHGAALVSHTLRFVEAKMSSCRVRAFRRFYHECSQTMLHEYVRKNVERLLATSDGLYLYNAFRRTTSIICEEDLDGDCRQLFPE
Method: (§1) Analysis of the autophosphorylation of wild type and mutant UL97 protein species was performed by a standard protein kinase assay as previously described (46). Briefly, purified protein was added to 2× protein kinase buffer (100 mM Tris HCl, pH9.0, 20 mM MgCl2, 10 μM ATP, 4 mM DTT, 2 M NaCl) and 370 KBq [γ^32P] ATP (Amersham), made up to 20 μl with SDW and incubated at 37°C. The reactions were terminated by the addition of 2× SDS sample buffer followed by boiling for 3 minutes. The amount of radiolabelled phosphate incorporated by autophosphorylation was analysed by SDS-PAGE and measured using the Biorad Mulitanalyst. The protein kinase assays were initially performed for 2 to 60 minutes to determine the maximum rate of phosphate incorporation, all assays were then performed at the maximum rate which equated to 5 minutes.
(§2) Enzyme kinetic analysis was performed on the purified wild type and mutant UL97 protein species as above using increasing concentrations of ATP (2 μM to 20 μM). The amount of incorporated radiolabelled phosphate was plotted against the concentration of ATP in a Lineweaver Burke plot to determine the Km for ATP for each UL97 species. […]

wild type UL97 = target: T2, wild type UL97 (Human cytomegalovirus, UniProt Q68101); test: UL97 autophosphorylation protein kinase assay, wild type
T2 construct: PCR reaction to generate the full length UL97; honey bee melittin secretion signal (N); made in house; host or cells: Sf21 insect cells, recombinant baculovirus (pMelBac C)
T2 sequence (Q68101 whole entry): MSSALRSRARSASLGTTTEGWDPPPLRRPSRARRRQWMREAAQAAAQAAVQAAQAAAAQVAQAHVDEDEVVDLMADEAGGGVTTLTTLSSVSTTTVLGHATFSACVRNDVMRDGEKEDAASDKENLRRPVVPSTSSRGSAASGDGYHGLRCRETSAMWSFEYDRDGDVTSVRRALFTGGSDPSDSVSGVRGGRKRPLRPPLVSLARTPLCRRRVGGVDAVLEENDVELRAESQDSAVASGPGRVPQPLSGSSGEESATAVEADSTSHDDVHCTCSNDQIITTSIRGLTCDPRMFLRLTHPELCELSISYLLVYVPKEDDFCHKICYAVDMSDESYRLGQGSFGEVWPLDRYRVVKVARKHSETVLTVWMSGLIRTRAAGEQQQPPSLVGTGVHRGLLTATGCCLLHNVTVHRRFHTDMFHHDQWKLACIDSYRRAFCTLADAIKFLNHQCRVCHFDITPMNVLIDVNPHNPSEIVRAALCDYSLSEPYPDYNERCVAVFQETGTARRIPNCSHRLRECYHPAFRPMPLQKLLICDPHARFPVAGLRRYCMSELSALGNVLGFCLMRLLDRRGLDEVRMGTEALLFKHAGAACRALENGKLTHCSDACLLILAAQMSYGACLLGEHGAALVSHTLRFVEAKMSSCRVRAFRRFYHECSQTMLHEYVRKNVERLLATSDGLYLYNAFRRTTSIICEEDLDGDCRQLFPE
Method: as §1
Enzyme kinetic analysis was performed on the purified wild type and mutant UL97 protein species as above using increasing concentrations of ATP (2 μM to 20 μM). The amount of incorporated radiolabelled phosphate was plotted against the concentration of ATP in a Lineweaver Burke plot to determine the Km for ATP for each UL97 species. The effect of maribavir upon the rate of radiolabelled phosphate incorporation by wild type or mutant UL97 was determined by protein kinase assays at a fixed concentration of maribavir (0.5 μM) as above, or with increasing concentrations of maribavir (0.01 μM to 5.0 μM) to determine the IC50 of maribavir for each UL97 species. In order to determine the nature of the inhibition mediated by maribavir, plots of 1/v vs 1/ATP with increasing concentrations of maribavir were constructed. Competitive inhibition was evident if the family of lines cconverged on the y-axis at 1/Vmax. The change in slope caused by the addition of maribavir was used to calculate the Ki using standard enzyme kinetic equations viz.

UL97 H520Q = target: T3, UL97 H520Q (Human cytomegalovirus, UniProt Q68101, H520Q); test: UL97 autophosphorylation protein kinase assay, H520Q
T3 construct: PCR reaction to generate the full length UL97; honey bee melittin secretion signal (N); made in house; host or cells: Sf21 insect cells, recombinant baculovirus (pMelBac C)
T3 sequence (Q68101 1-707 H520Q): T1 sequence (Q68101 1-707 L595F) with H520Q, F595L
Method: as §1, §2

Row | Compound | IC50 (UL97 L595F; L595F mutant) [nM] | % autophosphorylation Plus Maribavir (wild type UL97; maribavir 0.5 μM, normalised relative to wild type, mean and SD of triplicate) [%] | nature of the inhibition (wild type UL97; wild type UL97, 1/v vs 1/ATP with increasing maribavir) | Ki (wild type UL97; wild type UL97, competitive with ATP (2 μM to 20 μM), Lineweaver Burke plot) [nM] | IC50 (wild type UL97; wild type UL97, increasing concentrations of maribavir) [nM] | IC50 (UL97 H520Q; H520Q mutant) [nM] | Km (UL97 L595F; L595F, read-out: Km for ATP) [µM] | Km (wild type UL97; wild type UL97, ATP 2 μM to 20 μM, 5 minutes) [µM] | Km (UL97 H520Q; H520Q, read-out: Km for ATP) [µM]
1 | CC(C)Nc1nc2cc(Cl)c(Cl)cc2n1[C@H]1O[C@@H](CO)[C@H](O)[C@@H]1O [maribavir, 5,6-dichloro-2-(isopropylamino)-1-beta-L-ribofuranosyl-1H-benzimidazole] | 28 | 4.5 ± 2.0 | competitive inhibitor of ATP | 10 | 34 | 33 |  |  | 
2 | Nc1ncnc2c1ncn2[C@@H]1O[C@H](COP(=O)(O)OP(=O)(O)OP(=O)(O)O)[C@@H](O)[C@H]1O [ATP] |  |  |  |  |  |  | 31 ± 4.5 | 27 ± 2.2 | 25 ± 2.4
